Like-named read-outs stand apart in the source and are kept apart here.
Tests used:
[1] = molecular target: T1, UGT2B4 (Homo sapiens, UniProt P06133); conditions: both, 20 min, pH 7.4
T1 sequence (P06133 24-528): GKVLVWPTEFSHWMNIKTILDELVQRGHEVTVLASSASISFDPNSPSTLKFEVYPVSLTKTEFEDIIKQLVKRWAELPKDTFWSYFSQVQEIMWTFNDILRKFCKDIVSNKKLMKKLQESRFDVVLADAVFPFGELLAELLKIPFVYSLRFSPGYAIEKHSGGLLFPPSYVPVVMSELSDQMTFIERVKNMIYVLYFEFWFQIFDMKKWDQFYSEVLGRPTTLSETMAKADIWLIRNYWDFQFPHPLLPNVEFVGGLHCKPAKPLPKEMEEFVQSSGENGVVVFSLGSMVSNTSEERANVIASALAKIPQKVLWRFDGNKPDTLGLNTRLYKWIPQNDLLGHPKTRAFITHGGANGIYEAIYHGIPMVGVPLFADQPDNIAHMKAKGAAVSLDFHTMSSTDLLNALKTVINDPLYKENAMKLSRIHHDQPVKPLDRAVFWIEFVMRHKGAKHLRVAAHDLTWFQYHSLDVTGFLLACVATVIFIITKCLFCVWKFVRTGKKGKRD

[2] = physchem; assay type: physicochemical
From the text: (§1) […]. […] […]. […] […]

[3] = test system: human hepatocytes; conditions: both, 10 μmol/L
[4] = molecular target: T1, UGT2B4; design: with alamethicin-pretreated HLMs (0.5 mg/mL); tissue Sekisui-XenoTech; host or cells: pooled human liver microsomes (200 donors); conditions: predicted by combining in vitro phenotyping and human ADME data; cited from earlier work
[5] = molecular target: T2, CYP2C8 (Homo sapiens, UniProt P10632); assay: Reversible CYP inhibition in human liver microsomes
T2 sequence (P10632 1-490): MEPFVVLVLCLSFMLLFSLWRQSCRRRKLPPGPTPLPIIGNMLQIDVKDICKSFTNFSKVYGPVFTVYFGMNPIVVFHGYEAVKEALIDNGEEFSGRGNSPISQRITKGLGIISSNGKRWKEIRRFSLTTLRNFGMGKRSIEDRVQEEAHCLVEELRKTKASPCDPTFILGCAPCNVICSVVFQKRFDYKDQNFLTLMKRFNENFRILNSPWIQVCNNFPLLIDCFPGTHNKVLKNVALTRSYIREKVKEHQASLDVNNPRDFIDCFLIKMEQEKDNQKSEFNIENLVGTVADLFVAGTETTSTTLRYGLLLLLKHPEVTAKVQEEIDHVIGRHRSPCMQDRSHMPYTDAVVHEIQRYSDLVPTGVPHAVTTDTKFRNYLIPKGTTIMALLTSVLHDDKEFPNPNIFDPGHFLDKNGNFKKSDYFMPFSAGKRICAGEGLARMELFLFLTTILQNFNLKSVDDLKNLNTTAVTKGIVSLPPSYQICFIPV

[6] = molecular target: CYP2C9 (Homo sapiens, UniProt P11712); assay: as above
Chain of CYP2C9 (P11712 whole entry): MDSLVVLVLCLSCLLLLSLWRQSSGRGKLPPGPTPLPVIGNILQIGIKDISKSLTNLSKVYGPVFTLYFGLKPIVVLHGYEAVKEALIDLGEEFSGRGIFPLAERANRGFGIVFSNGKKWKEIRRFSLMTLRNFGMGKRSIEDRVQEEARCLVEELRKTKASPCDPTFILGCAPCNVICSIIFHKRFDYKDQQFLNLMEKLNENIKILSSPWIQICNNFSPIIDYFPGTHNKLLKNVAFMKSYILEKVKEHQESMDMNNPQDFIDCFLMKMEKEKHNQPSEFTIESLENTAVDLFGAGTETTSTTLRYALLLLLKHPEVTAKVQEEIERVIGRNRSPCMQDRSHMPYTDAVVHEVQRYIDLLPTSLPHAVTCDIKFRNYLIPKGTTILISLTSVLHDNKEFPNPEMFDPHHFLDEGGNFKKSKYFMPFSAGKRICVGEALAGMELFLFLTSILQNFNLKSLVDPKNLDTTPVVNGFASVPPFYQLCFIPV

[7] = in vitro; assay type: in vitro ADME
From the text: as §1

[8] = in vitro; conditions: human, Caco-2
Protocol: Caco-2 cells were obtained from American Type Culture Collection. Prior to the experiments,
the cells were seeded on 55 cm2 bottom culture dishes (Corning). The cells were cultured at
37°C in a humidified CO2 (5%) incubator and routinely passaged about once a week. Caco-2
cultured in the medium at 37°C in a humidified CO2 (5%) incubator for 23 days to prepare cell
The medium was changed 4 days after seeding and then changed every 2 or 3 days
thereafter. Before the experiment, the integrity of the Caco-2 cell monolayer was checked by
measuring the trans-epithelial electrical resistance (TEER) value. The TEER values of cell
In the transport experiments, the medium of top side of the cells (apical side) and basal
side of the cells (basal side) were replaced with the DMSO-HBSS solution, the inhibitor-HBSS
control), or the test solutions (digoxin and mannitol as substrates). The volumes of the replaced
solutions were 300 μL for the apical side and 1 mL for the basal side. The DMSO-HBSS […]
of the solution in each basal side (receiver side) were collected and measured for the
radioactivity using an LSC. […]
collected and measured for the radioactivity using an LSC. […]
side (receiver side) were collected and measured for the radioactivity using an LSC. […]
in each apical side and each basal side (donor side) were collected and measured for the
radioactivity using an LSC.

[9] = design: method as in earlier work; conditions: ref 7 of supplement, cited from earlier work
[10] = ref 6 of supplement, cited from earlier work; for AUC0-inf observed / Cmax observed: geometric mean; for tmax observed: median
[11] = 100 mg QD, Day 1, geometric mean
[12] = 100 mg QD, Day 14, geometric mean
[13] = 300 mg QD, Day 1, geometric mean
[14] = 300 mg QD, Day 14, geometric mean
[15] = 400 mg QD, Day 1, geometric mean
[16] = 400 mg QD, Day 14, geometric mean

In the case of `O=C(c1cccnc1-c1ccncc1)N1CCC(O)(Cc2ccccc2)CC1` [Soticlestat], the “fm of total UGT mediated glucuronidation via UGT2B4” value [1] is reported as about 90%, the logP [2] is reported as 1.4 and the pKa [2] is reported as 3.37. The Compound type ([2]; PBPK input) was “Monoprotic base”, the metabolized by glucuronidation [3] was about 66% and the “oxidation via CYP3A” value [3] was about 33%. The “fm by UGT2B4” value [4] was 81.2%, the Ki [5] was 14.5 µM and the fumic ([5]; human) was 0.98. For the same compound, the “inhibition of CYP2C8” value ([5]; microsomes) was “low double‐digit micromolar values”, the Ki [6] was 15.6 µM and the fumic ([6]; human) was 0.88. For the same compound, the “inhibition of CYP2C9” value ([6]; microsomes) was “low double‐digit micromolar values”, the Main binding protein [7] was “AAG” and the fraction unbound [7] was 0.066. For the same compound, the Papp [8] was 23.4 ×10⁻⁶ cm/s, the AUC0-24 observed [9, 11] was 422 ng·h/mL and the Cmax observed [9, 11] was 419 ng/mL. The tmax observed ([9]; 100 mg QD, Day 1, median) was 25.2 min, the AUCtau observed [9, 12] was 443 ng·h/mL and the Cmax observed [9, 12] was 469 ng/mL. For the same compound, the tmax observed ([9]; 100 mg QD, Day 14, median) was 19.8 min, the AUC0-24 observed [9, 13] was 1798 ng·h/mL and the Cmax observed [9, 13] was 1729 ng/mL. For the same compound, the tmax observed ([9]; 300 mg QD, Day 1, median) was 25.2 min, the AUCtau observed [9, 14] was 2497 ng·h/mL and the Cmax observed [9, 14] was 2866 ng/mL. The tmax observed ([9]; 300 mg QD, Day 14, median) was 19.8 min, the AUC0-24 observed [9, 15] was 2283 ng·h/mL and the Cmax observed [9, 15] was 2374 ng/mL. For the same compound, the AUCtau observed [9, 16] was 2605 ng·h/mL, the Cmax observed [9, 16] was 2709 ng/mL and the AUC0-inf observed ([10]; 15 mg single oral dose) was 22.6 ng·h/mL. For the same compound, the Cmax observed ([10]; 15 mg single oral dose) was 33.5 ng/mL, the tmax observed ([10]; 15 mg single oral dose) was 15 min and the AUC0-inf observed ([10]; 50 mg single oral dose) was 134 ng·h/mL. For the same compound, the Cmax observed ([10]; 50 mg single oral dose) was 167 ng/mL, the tmax observed ([10]; 50 mg single oral dose) was 15 min and the AUC0-inf observed ([10]; 200 mg single oral dose) was 591 ng·h/mL. For the same compound, the Cmax observed ([10]; 200 mg single oral dose) was 527 ng/mL, the tmax observed ([10]; 200 mg single oral dose) was 15 min and the AUC0-inf observed ([10]; 600 mg single oral dose) was 4937 ng·h/mL. For the same compound, the Cmax observed ([10]; 600 mg single oral dose) was 3847 ng/mL, the tmax observed ([10]; 600 mg single oral dose) was 30 min and the AUC0-inf observed ([10]; 900 mg single oral dose) was 7454 ng·h/mL. The Cmax observed ([10]; 900 mg single oral dose) was 4814 ng/mL, the AUC0-inf observed ([10]; 1350 mg single oral dose) was 12,699 h.ng/mL and the Cmax observed ([10]; 1350 mg single oral dose) was 7672 ng/mL. For the same compound, the tmax observed ([10]; 1350 mg single oral dose) was 48 min.

From publication PMC12044326 (Clinical Pharmacology in Drug Development, 2025)
